The target of the first test is T1, yeast glucose 6-phosphate dehydrogenase (Saccharomyces cerevisiae, UniProt P11412).
T1 sequence (P11412 1-505): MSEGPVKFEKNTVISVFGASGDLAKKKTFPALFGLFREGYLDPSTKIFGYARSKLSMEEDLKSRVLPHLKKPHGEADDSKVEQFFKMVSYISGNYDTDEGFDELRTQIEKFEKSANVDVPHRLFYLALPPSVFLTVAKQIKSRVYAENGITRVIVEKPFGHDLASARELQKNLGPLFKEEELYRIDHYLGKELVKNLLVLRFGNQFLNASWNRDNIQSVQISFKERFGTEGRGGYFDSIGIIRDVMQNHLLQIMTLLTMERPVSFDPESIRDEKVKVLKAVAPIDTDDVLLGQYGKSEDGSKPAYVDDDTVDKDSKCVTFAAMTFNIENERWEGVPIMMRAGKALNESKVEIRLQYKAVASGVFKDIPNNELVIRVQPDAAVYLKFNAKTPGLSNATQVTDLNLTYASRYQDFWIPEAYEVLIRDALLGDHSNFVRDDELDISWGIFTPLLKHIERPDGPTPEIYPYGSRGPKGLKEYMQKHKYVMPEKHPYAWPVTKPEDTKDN
Put plainly: Enzymatic reducibility with the reaction catalyzed by yeast glucose 6-phosphate dehydrogenase. The format is biochemical. The following applies: 0.05M triethanolamine/HCl pH 8.0, room temperature, 5.5 mM MgCl2, 4.5 mM glucose-6-phosphate, 0.1 mM coenzyme free or polymer-bound, 30 μg glucose-6-phosphate dehydrogenase. Here is the method:
The enzymatic reducibility of the water-soluble polymer-bound N^6 -(2-aminoethyl)-NADP derivatives was determined compared with N^6 -(2-aminoethyl)-NADP with the reaction catalyzed by yeast glucose 6-phosphate dehydrogenase under the following conditions:
0.05M triethanolamine/HCl, pH 8.0, room temperature
4.5 mM glucose-6-phosphate
0.1 mM N^6 -(2-aminoethyl)-NADP (free or polymer-bound)
30 μg glucose-6-phosphate dehydrogenase
Note: For the N^6 -(2-aminoethyl)NADP and ^6 -(2-aminoethyl)-NADPH derivatives ε267 =21000 M^-1 cm^-1 and ε340 =6220 M^-1 cm^-1 were assumed as extinction coefficients.
`NCCNc1ncnc2c1ncn2[C@@H]1O[C@H](COP(=O)(O)OP(=O)([O-])OC[C@H]2O[C@@H]([n+]3cccc(C(N)=O)c3)[C@H](O)[C@@H]2O)[C@@H](O)[C@H]1OP(=O)(O)O` [N^6-(2-aminoethyl)-NADP] showed a Reducibility % of 100%.

As for PEG (Mr =4000)-N^6 -(2-aminoethyl)-NADP, the Reducibility % was 95%.

“PEG (Mr =20000)-N^6 -(2-aminoethyl)-NADP” showed a Reducibility % of 95%.

As to “poly-(divinyl ether/maleic acid)-N^6 -(2-aminoethyl)-NADP”, the Reducibility % stood at 63%.

“poly-(ethylene/maleic acid)-N^6 -(2-aminoethyl)-NADP” showed a Reducibility % of 50%.

Consider “poly-(methylvinyl ether/maleic acid)-N^6 -(2-aminoethyl)-NADP”, for which the Reducibility % came to 60%.

Staying with this test, now noted: catalyzed by beer yeast glucose-6-phosphate dehydrogenase.
`NCCNc1ncnc2c1ncn2[C@@H]1O[C@H](COP(=O)(O)OP(=O)([O-])OC[C@H]2O[C@@H]([n+]3cccc(C(N)=O)c3)[C@H](O)[C@@H]2O)[C@@H](O)[C@H]1OP(=O)(O)O` [N^6-(2-aminoethyl)-NADP]: the “Enzymatic reduction to N^6 -(2-aminoethyl)-NADPH (in words)” value is reported as “Quantitative reduction”.

In another test the target is T2, yeast alcohol dehydrogenase (Saccharomyces cerevisiae, UniProt P00330).
T2 sequence (P00330 1-348): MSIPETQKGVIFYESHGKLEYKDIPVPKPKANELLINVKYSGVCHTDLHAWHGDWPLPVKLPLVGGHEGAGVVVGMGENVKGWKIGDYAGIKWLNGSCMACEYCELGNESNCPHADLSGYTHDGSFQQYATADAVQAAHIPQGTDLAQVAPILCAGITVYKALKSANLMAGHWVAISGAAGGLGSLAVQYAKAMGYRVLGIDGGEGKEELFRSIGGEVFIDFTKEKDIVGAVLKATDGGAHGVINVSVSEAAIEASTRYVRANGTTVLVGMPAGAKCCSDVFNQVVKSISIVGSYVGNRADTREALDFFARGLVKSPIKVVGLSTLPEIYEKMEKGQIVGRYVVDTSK
As to the kind of experiment: Enzymatic reducibility with the reaction catalyzed by yeast alcohol dehydrogenase. Type of test: biochemical. The following applies: 0.1M tris/HCl pH 8.2, room temperature, 0.1M ethanol, 7 mM semicarbazide/HCl, 0.1 mM coenzyme free or polymer-bound, 0.3 mg alcohol dehydrogenase. Here is the method:
The enzymatic reducibility of the water-soluble polymer-bound N^6 -(2-aminoethyl)-NAD derivatives was determined compared with N^6 -(2-aminoethyl)-NAD with the reaction catalyzed by yeast alcohol dehydrogenase under the following conditions:
0.1M tris/HCl, pH 8.2, room temperature
0.1 mM N^6 -(2-aminoethyl)-NAD
0.3 mg alcohol dehydrogenase
Note: For N^6 -(2-aminoethyl)-NAD and N^6 -(2-aminoethyl)-NADH derivatives ε267 =21000 M^-1 cm^-1 and ε340 =6220 M^-1 cm^-1 as extiction coefficients.
In turn, `NCCNc1ncnc2c1ncn2[C@@H]1O[C@H](COP(=O)(O)OP(=O)([O-])OC[C@H]2O[C@@H]([n+]3cccc(C(N)=O)c3)[C@H](O)[C@@H]2O)[C@@H](O)[C@H]1O` [N^6-(2-aminoethyl)-NAD] showed a Reducibility % of 100%.

The compound dextran-N^6 -(2-aminoethyl)-NAD gave a Reducibility % of 90%.

“poly-(divinyl ether/maleic acid)-N^6 -(2-aminoethyl)-NAD” came in with a Reducibility % of 60%.

The compound “poly-(ethylene/maleic acid)-N^6 -(2-aminoethyl)-NAD” gave a Reducibility % of 60%.

“poly-(methylvinyl ether/maleic acid)-N^6 -(2-aminoethyl)-NAD” gave a Reducibility % of 70%.

“polyethylene glycol N^6 -(2-aminoethyl)-NAD” registered a Reducibility % of 90%.

For “polyvinylpyrrolidone N^6 -(2-aminoethyl)-NAD”, the Reducibility % is given as 90%.

Still in this test, the particulars now being: catalyzed by beer yeast alcohol dehydrogenase.
With `NCCNc1ncnc2c1ncn2[C@@H]1O[C@H](COP(=O)(O)OP(=O)([O-])OC[C@H]2O[C@@H]([n+]3cccc(C(N)=O)c3)[C@H](O)[C@@H]2O)[C@@H](O)[C@H]1O` [N^6-(2-aminoethyl)-NAD], the “Enzymatic reduction to N^6 -(2-aminoethyl)-NADH (in words)” value was “Quantitative reduction”.

Source of the values: patent publication US5399681A, “Method for preparing N^6 -substituted NAD, NADP or FAD” (Gesellschaft fur Biotechnologische Forschung mbH (GBF), priority 1986, dated 1995).
